# Assay results as given in US7314861B2, “Melanin-concentrating hormone analogs” (priority 2001, dated 2008).
# Where a SMILES comes first, the peptide text is derived from it. Bridges are numbered along the chain shown (N, C = ends).
# What was measured:
# human MCH-1R [1] = target: T1, human MCH-1R (Homo sapiens, UniProt Q99705); assay: Aequorin bioluminescence functional assay, MCH-1R; conditions: for MCH-1R Activation %: % Activation at 10 μM, aequorin functional assay
# Protocol: (§1) The aequorin bioluminescence assay can be used to measure the activity of G protein-coupled receptors that couple through the Gα protein subunit family consisting of Gq and G11. Such coupling leads to phospholipase C activation, intracellular calcium mobilization and protein kinase C activation.
# (§2) Following approximately 40 hours of expression the apo-aequorin in the cells was charged for 4 hours with coelenterazine (10 μM) under reducing conditions (300 μM reduced glutathione) in ECB buffer (140 mM NaCl, 20 mM KCl, 20 mM HEPES-NaOH [pH=7.4], 5 mM glucose, 1 mM MgCl2, 1 mM CaCl2, 0.1 mg/ml bovine serum albumin).
# (§3) The cells were harvested, washed once in ECB medium and resuspended to 500,000 cells/ml. 100 μl of cell suspension (corresponding to 5×10^4 cells) was then injected into the test plate containing MCH or MCH analogs, and the integrated light emission was recorded over 30 seconds, in 0.5 second units. 20 μL of lysis buffer (0.1% final Triton X-100 concentration) was then injected and the integrated light emission recorded over 10 seconds, in 0.5 second units. The “fractional response” values for each well were calculated by taking the ratio of the integrated response to the initial challenge to the total integrated luminescence including the Triton X-100 lysis response.
# human MCH-R2 = human MCH-R2 (Homo sapiens, UniProt Q969V1); assay: Aequorin bioluminescence functional assay, MCH-2R; conditions: aequorin functional assay; for MCH-2R Activation %: % Activation at 10 μM
# human MCH-R2, sequence (Q969V1 whole entry): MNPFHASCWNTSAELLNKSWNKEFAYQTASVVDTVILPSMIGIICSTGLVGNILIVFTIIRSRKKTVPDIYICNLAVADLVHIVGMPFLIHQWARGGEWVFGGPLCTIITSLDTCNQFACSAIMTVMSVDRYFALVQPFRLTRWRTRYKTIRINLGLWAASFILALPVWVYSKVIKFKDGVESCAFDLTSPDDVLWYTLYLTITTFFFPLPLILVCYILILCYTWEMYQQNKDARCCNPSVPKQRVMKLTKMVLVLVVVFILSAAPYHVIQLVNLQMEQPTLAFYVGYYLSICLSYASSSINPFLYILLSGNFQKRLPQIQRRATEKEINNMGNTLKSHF
# Protocol: as §1, §2, §3
# human MCH-1R [2] = target: T1, human MCH-1R; assay: Radiolabeled MCH-R binding assay (SPA based), MCH-1R
# Protocol: (§4) Cell membranes were prepared on ice. Each T-75 flask was rinsed twice with 10 ml of Enzyme-free Cell Dissociation Buffer (Specialty Media, Lavallette, N.J.), and the cell monolayer was detached in an additional 10 ml of Enzyme-free Cell Dissociation Buffer by incubation at room temperature for 10 minutes. Dissociated cells were centrifuged (500×g for 10 minutes at 4° C.), resuspended in 5 ml homogenization buffer (10 mM Tris-HCl, pH 7.4, 0.01 mM Pefabloc, 10 μM phosphoramidon, 40 μg/ml bacitracin) and then homogenized using a glass homogenizer (10-15 strokes). The homogenate was centrifuged for 10 minutes (1,000×g at 4° C.). The resulting supernatant was then centrifuged at 38,700×g for 15 minutes at 4° C. Pelleted membranes were resuspended (passed through 25 gauge needle 5 times), snap-frozen on liquid nitrogen, and stored at −80° C. until use.
# (§5) For the SPA-based assay, WGA-PVT beads (NEN Life Sciences Products) were resuspended in Dulbecco's PBS with calcium and magnesium (500 mg beads in 4 ml PBS). […] The suspension was mixed gently for 20 minutes, 12.3 ml of assay buffer and protease inhibitors were added (final concentration given): 2 μg/ml leupeptin, 10 μM phosphoramidon, 40 μg/ml bacitracin, 5 μg/ml aprotinin, 0.1 mM Pefabloc.
# (§6) Coated beads were kept on ice until use. […] Binding reactions were allowed to proceed at room temperature for 3 hours. Quantitation was performed by scintillation counting (TopCount device).
# human MCH-2R = human MCH-2R (Homo sapiens, UniProt Q969V1); assay: Radiolabeled MCH-R binding assay (SPA based), MCH-2R; conditions: MCH-2R IC50 (nM)
# human MCH-2R, sequence (Q969V1 whole entry): as above
# Protocol: as §4, §5, §6
# T1 sequence (Q99705 whole entry): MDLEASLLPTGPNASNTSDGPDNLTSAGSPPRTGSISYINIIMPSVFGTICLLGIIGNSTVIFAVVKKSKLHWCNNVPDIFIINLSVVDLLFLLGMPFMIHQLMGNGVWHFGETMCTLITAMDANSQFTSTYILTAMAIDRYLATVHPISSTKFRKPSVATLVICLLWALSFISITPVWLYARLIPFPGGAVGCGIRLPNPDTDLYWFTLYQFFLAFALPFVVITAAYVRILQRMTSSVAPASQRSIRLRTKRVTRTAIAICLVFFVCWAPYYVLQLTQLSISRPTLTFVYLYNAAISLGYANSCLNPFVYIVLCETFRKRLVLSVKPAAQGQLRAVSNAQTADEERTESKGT
smiles,measurement,setting,value
CSCC[C@H](NC(=O)[C@H](CC(=O)O)NC(=O)[C@H](Cc1ccccc1)NC(=O)[C@@H](N)CC(=O)O)C(=O)N[C@@H](C)C(=O)N[C@@H](CCCNC(=N)N)C(=O)N[C@H]1CSSC[C@@H](C(=O)N[C@@H](Cc2c[nH]c3ccccc23)C(=O)N[C@@H](CCC(N)=O)C(=O)N[C@H](C(=O)O)C(C)C)NC(=O)[C@@H]2CCCN2C(=O)[C@H](CCCNC(=N)N)NC(=O)[C@H](Cc2ccc(O)cc2)NC(=O)[C@H](C(C)C)NC(=O)[C@H](CCCNC(=N)N)NC(=O)CNC(=O)[C@H](CC(C)C)NC(=O)[C@H](CCSC)NC1=O [compound 45] (H-DFDMARCMLGRVYRPCWQV-OH; disulfide 7-16; N-terminus and C-terminus assumed),MCH-1R Activation %,human MCH-1R [1]; Table 3,96%
same,MCH-2R Activation %,human MCH-R2; Table 3,94%
same,IC50,human MCH-1R [2],0.3 nM
same,IC50,human MCH-2R; Table 3,2 nM
CSCC[C@@H]1NC(=O)[C@@H](NC(=O)[C@@H](N)CCCNC(=N)N)CSSC[C@@H](C(N)=O)NC(=O)[C@@H]2CCCN2C(=O)[C@H](CCCNC(=N)N)NC(=O)[C@H](Cc2ccc(O)cc2)NC(=O)[C@H](C(C)C)NC(=O)[C@H](CCCNC(=N)N)NC(=O)CNC(=O)[C@H](CC(C)C)NC1=O [compound 39],EC50,human MCH-1R [1],14 nM
same,MCH-1R Activation %,human MCH-1R [1]; Table 2,106%
same,EC50,"human MCH-R2; MCH-2R EC50 (nM), Table 2",11.6 nM
same,MCH-2R Activation %,human MCH-R2; Table 2,109%
same,IC50,human MCH-1R [2],0.13 nM
same,IC50,human MCH-2R; Table 2,11 nM
